Source: US8592383B2, “Cycloalkyl-fused tetrahydroquinolines as CRTH2 receptor modulators” (Merck Sharp & Dohme Corp., priority 2011, dated 2013)

Biological target: T1, hCRTH2 (Homo sapiens, UniProt Q9Y5Y4)
T1 sequence (Q9Y5Y4 1-395): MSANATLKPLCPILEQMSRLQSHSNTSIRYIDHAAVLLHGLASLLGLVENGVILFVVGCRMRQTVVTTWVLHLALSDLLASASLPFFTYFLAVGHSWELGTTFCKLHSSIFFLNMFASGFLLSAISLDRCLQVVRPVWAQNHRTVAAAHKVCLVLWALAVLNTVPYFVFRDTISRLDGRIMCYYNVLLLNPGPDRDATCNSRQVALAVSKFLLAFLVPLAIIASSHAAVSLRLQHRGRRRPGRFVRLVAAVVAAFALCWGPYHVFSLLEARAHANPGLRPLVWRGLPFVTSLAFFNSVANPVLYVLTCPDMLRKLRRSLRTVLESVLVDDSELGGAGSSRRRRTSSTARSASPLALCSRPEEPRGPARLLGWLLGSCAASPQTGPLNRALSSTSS
Experiment: biochemical
Conditions: Ki (nM)

Structure (SMILES) | Ki
O=C(O)CCC(=O)N(C1CC1)[C@@H]1c2ccccc2N(C(=O)OCc2ccc(F)cc2)[C@@H]2CCC[C@@H]21 (single isomer, unassigned) [compound 22, 4-[(4-Fluorophenyl)methyl]cis,cis-[(3-carboxy-1-oxopropyl)cyclopropylamino]-1,2,3,3a,9,9a-hexahydro-4H-cyclopenta[b]quinoline-4-carboxylate] | 5.1 to 20 nM

Same assay, conditions: Ki, Radioligand Binding Assay A; 3.0 nM [3H]PGD2, HEK-hCRTH2 membranes

Structure (SMILES) | Ki
O=C(O)CCC(=O)N(C1CCC1)[C@@H]1c2ccccc2N(C(=O)c2cccc(OC(F)(F)F)c2)[C@@H]2CCC[C@@H]21 (single isomer, unassigned) [17DA, 4-[cyclobutyl[cis,cis-2,3,3a,4,9,9a-hexahydro-4-[3-(trifluoromethoxy)benzoyl]-1H-cyclopenta[b]quinolin-9-yl]amino]-4-oxobutanoic acid] | 34.2 nM
Cc1ccc2c(c1)C(N(C(=O)CCC(=O)O)C1CC1)C1CCCC1N2C(=O)c1ccc(OC(F)(F)F)cc1 (single isomer, unassigned) [compound 51, 4-[Cyclopropyl[cis,cis-2,3,3a,4,9,9a-hexahydro-7-methyl-4-[4-(trifluoromethoxy)benzoyl]-1H-cyclopenta[b]quinolin-9-yl]amino]-4-oxobutanoic acid] | 6.9 nM
O=C(O)CCC(=O)N(C1CC1)C1c2cc(F)ccc2N(C(=O)c2ccc(OC(F)(F)F)cc2)C2CCCC21 (single isomer, unassigned) [compound 134, 4-[cyclopropyl[cis, cis-7-fluoro-2,3,3a,4,9,9a-hexahydro-4-[4-(trifluoromethoxy)benzoyl]-1H-cyclopenta[b]quinolin-9-yl]amino]-4-oxobutanoic acid] | 236 nM
O=C(O)CCC(=O)N(C1CC1)[C@H]1c2cc(F)ccc2N(C(=O)c2ccc(OC(F)(F)F)cc2)[C@H]2CCC[C@H]21 [compound 17, 4-(cyclopropyl((3aS,9R,9aR)-7-fluoro-4-(4-(trifluoromethoxy)benzoyl)-2,3,3a,4,9,9a-hexahydro-1H-cyclopenta[b]quinolin-9-yl)amino)-4-oxobutanoic acid] | 5.1 nM

Other lines, results leading:

Ki | Structure (SMILES)
1080 nM | CCN(C(=O)CCC(=O)O)C1c2ccccc2N(C(=O)OCc2cc(F)cc(F)c2)C2CCCC12 (single isomer, unassigned) [22A, 4-[(3,5-difluorophenyl)methyl] cis, cis-[(3-carboxy-1-oxopropyl)ethylamino]-1,2,3,3a,9,9a-hexahydro-4H-cyclopenta[b]quinoline-4-carboxylate]
638 nM | O=C(O)COC(=O)N(C1CC1)C1c2ccccc2N(c2nnc(Cc3ccc(OC(F)(F)F)cc3)o2)C2CCCC21 (single isomer, unassigned) [38G, [[[cyclopropyl[cis,cis-2,3,3a,4,9,9a-hexahydro-4-[5-[[4-(trifluoromethoxy)phenyl]methyl]-1,3,4-oxadiazol-2-yl]-1H-cyclopenta[b]quinoline-9-yl]amino]carbonyl]oxy]acetic acid]
21.2 nM | O=C(O)CCCN(C1CC1)C1c2ccccc2N(C(=O)OCc2ccccc2)C2CCCC21 (single isomer, unassigned) [compound 60, 4-(phenylmethyl) cis, cis-[(3-carboxypropyl)cyclopropylamino]-1,2,3,3a,9,9a-hexahydro-4H-cyclopenta[b]quinoline-4-carboxylate]
15.7 nM | CCN(C(=O)CCC(=O)O)C1c2ccccc2N(C(=O)OCc2ccc(F)c(F)c2)C2CCCC12 (single isomer, unassigned) [compound 72, 4-[(3,4-difluorophenyl)methyl] cis, cis-[(3-carboxy-1-oxopropyl)ethylamino]-1,2,3,3a,9,9a-hexahydro-4H-cyclopenta[b]quinoline-4-carboxylate]
4.97 nM | CCN(C(=O)CCC(=O)O)C1c2ccccc2N(C(=O)C2CC2c2ccccc2)C2CCCC12 (single isomer, unassigned) [compound 69, 4-[ethyl[cis, cis-2,3,3a,4,9,9a-hexahydro-4-[(2-phenyl-1-cyclopropyl)carbonyl]-1H-cyclopenta[b]quinolin-9-yl]amino]-4-oxobutanoic acid]
1.5 nM | O=C(O)CCC(=O)N(C1CC1)C1c2ccc(Cl)cc2N(C(=O)c2ccc(OC(F)(F)F)cc2)C2CCC21 (single isomer, unassigned) [27K, 4-[[cis, cis-5-chloro-1,2,2a,3,8,8a-hexahydro-3-[4-(trifluoromethoxy)benzoyl]cyclobuta[b]quinolin-8-yl]cyclopropylamino]-4-oxobutanoic acid]
